Results on 5 compounds are retold here after patent US5206384A, “Actinonin derivatives and pharmaceutically acceptable salts thereof” (Zaidan Hojin Biseibutsu Kagaku Kai, priority 1990, dated 1993).

The target of one assay is enkephalinase (Homo sapiens, UniProt P08473). In words: Enkephalinase-inhibitory activity. In kind it is biochemical. Conditions: for IC50: concentration which inhibits enzymatic activity of enkephalinase by 50%. On the procedure: IC50 concentrations (M concentration) of some typical compounds of this invention which can inhibit enzymatic activity of enkephalinase by 50% were measured.
enkephalinase, sequence (P08473 whole entry, species assumed): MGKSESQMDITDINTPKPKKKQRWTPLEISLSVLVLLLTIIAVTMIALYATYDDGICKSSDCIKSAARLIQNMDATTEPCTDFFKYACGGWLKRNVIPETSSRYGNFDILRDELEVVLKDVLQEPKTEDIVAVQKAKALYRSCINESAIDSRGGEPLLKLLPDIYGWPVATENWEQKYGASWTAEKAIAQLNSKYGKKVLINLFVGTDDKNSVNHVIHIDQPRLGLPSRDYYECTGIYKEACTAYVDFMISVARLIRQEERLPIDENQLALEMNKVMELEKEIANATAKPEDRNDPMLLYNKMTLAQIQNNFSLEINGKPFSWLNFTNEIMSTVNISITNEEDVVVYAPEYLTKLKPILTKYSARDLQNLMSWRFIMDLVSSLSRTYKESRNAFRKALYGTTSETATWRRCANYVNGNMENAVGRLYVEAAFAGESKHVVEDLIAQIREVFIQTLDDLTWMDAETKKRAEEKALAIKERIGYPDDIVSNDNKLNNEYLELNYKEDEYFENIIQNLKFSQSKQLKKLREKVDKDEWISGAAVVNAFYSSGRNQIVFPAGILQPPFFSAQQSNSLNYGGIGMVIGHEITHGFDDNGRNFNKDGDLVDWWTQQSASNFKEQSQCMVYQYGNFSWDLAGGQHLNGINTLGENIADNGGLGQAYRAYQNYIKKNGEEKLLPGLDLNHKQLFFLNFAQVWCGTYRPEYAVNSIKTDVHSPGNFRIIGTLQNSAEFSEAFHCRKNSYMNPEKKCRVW

Assay [1] deals with angiotensin-conversion enzyme (ACE) (Homo sapiens, UniProt P12821). Briefly: ACE-inhibitory activity. In kind it is biochemical. Conditions: for IC50: method of Analytical Biochemistry, 84, 361 (1978). How it is done: Thus, we have tested the enzyme-inhibitory activities of some typical compounds of this invention against angiotensin-conversion enzyme (ACE) which participates in the control of blood-pressure in mammalian animals by converting angiotensin I, a peptide-type hormone in brain, into angiotensin II. The determination of ACE-inhibitory activity was carried out in accordance with the method described in "Analytical Biochemistry", 84, 361 (1978) and the activity was estimated in term of the concentration (mole concentration, M) of each compound tested at which the activity of the enzyme can be inhibited by 50% (IC50).
angiotensin-conversion enzyme (ACE), sequence (P12821 30-1306, species assumed): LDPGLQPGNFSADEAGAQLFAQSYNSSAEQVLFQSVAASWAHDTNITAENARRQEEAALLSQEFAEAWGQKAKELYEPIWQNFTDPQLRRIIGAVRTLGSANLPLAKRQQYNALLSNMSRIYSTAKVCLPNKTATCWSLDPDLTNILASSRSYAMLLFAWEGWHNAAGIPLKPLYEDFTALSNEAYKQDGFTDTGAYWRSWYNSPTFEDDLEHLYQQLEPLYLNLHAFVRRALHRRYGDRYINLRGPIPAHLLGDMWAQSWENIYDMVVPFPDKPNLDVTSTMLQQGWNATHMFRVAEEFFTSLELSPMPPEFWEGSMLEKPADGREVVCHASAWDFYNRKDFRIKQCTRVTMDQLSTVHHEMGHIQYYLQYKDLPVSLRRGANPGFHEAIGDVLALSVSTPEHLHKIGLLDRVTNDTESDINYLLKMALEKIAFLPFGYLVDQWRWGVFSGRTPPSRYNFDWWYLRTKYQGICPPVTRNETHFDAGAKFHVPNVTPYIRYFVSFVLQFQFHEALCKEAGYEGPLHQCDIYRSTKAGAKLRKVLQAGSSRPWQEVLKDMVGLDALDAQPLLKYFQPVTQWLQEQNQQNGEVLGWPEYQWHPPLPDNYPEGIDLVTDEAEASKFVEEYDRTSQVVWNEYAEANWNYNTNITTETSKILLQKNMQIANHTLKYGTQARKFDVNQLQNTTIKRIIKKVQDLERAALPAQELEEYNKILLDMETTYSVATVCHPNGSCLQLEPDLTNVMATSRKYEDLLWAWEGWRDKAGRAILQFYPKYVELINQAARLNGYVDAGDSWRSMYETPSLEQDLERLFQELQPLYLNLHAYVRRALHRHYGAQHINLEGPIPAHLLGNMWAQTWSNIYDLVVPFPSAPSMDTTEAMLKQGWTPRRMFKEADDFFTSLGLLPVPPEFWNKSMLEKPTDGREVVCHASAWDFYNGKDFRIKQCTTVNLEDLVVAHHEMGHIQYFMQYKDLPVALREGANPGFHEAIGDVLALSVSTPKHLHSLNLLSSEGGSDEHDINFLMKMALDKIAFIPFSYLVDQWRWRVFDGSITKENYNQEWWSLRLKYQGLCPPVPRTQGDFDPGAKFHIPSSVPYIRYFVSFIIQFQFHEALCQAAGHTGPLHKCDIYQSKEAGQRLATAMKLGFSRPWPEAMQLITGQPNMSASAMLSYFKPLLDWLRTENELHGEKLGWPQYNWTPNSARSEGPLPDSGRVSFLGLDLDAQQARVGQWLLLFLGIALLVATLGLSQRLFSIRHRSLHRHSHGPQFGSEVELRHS

The subject of the next assay is peptidases. Conditions: Journal of Antibiotics, 38, 1629-1630 (1985); U.S. Pat. No. 4,663,342; cited from earlier work.

The structures appear in SMILES notation.

As to `CCCCC[C@H](CC(=O)NOS(=O)(=O)O)C(=O)NC(C(=O)N1CCC[C@H]1COS(=O)(=O)O)C(C)C` (stereo in doubt) [Compound of formula (Ia), (2R)-2-(Sulfoxyaminocarbonylmethyl)heptanoyl-L-valyl-(2S)-2-(sulfoxymethyl)pyrrolidine], the IC50 on enkephalinase is 14 µM; in assay [1], 92 µM.
In the case of `CCCCC[C@H](CC(=O)NO)C(=O)NC(C(=O)N1CCC[C@H]1C(=O)O)C(C)C` (stereo in doubt) [Compound of formula (Ib), (2R)-2-(Hydroxyaminocarbonylmethyl)heptanoyl-L-valyl-L-proline], the IC50 is 0.31 µM against enkephalinase and 28 µM in assay [1]. Moreover, at enkephalinase (relative to actinonin as reference, from Table 2), the “enkephalinase-inhibitory activity, times stronger than that of actinonin” value is given as “more than 10 times”.
As for `CCCCC[C@H](CC(=O)NO)C(=O)NC(C(=O)N1CCC[C@H]1COS(=O)(=O)O)C(C)C` (stereo in doubt) [Compound of formula (Ig), (2R)-2-(Hydroxyaminocarbonylmethyl)heptanoyl-L-valyl-(2S)-2-(sulfoxymethyl)pyrrolidine], the IC50 amounted to 4.1 µM on enkephalinase and 430 µM in assay [1].
Turning to `CCCCC[C@H](CC(=O)NO)C(=O)N[C@H](C(=O)N1CCC[C@H]1CO)C(C)C` [Actinonin, actinonin], the “inhibits a wide variety of peptidases (in words)” value in the assay on peptidases is on record as “inhibits a wide variety of peptidases”. The compound further gave an IC50 on enkephalinase of 5.6 µM. In assay [1], the “inhibitory activities against angiotensin-converting enzymes (in words)” value is listed as “low levels of inhibitory activity” and the IC50 turned out to be 590 µM.
Regarding `CCCCC[C@H](CC(=O)NO)C(=O)N[C@H](C(=O)N1CCC[C@H]1C(=O)NO)C(C)C` [Compound of formula (Id), (2R)-2-(Hydroxyaminocarbonylmethyl)heptanoyl-L-valyl-L-proline.hydroxamide], the IC50 against enkephalinase was 1.2 µM; in assay [1], 0.53 µM.

As a reminder, the IC50 is the concentration needed to halve the response being measured. A low value points to greater potency.
